Experimental data from PubChem BioAssay (NCI).
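These data come from cells grown in 96-well plates and exposed to compound for 48 hours at five concentrations. GI50 = concentration required for 50% inhibition of growth. TGI is the concentration that stops growth completely.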

Legend:
Test in all cases: growth of human tumour cells (NCI), 48 h
786-0 renal = tested on: 786-0 renal
A498 renal = tested on: A498 renal
A549 NSCLC = tested on: A549 NSCLC
ACHN renal = tested on: ACHN renal
BT-549 breast = tested on: BT-549 breast
CAKI-1 renal = tested on: CAKI-1 renal
CCRF-CEM leukemia = tested on: CCRF-CEM leukemia
COLO 205 colon = tested on: COLO 205 colon
DU-145 prostate = tested on: DU-145 prostate
EKVX NSCLC = tested on: EKVX NSCLC
HCC-2998 colon = tested on: HCC-2998 colon
HCT-116 colon = tested on: HCT-116 colon
HCT-15 colon = tested on: HCT-15 colon
HL-60(TB) leukemia = tested on: HL-60(TB) leukemia
HOP-62 NSCLC = tested on: HOP-62 NSCLC
HOP-92 NSCLC = tested on: HOP-92 NSCLC
HS 578T breast = tested on: HS 578T breast
HT29 colon = tested on: HT29 colon
IGROV1 ovarian = tested on: IGROV1 ovarian
K-562 leukemia = tested on: K-562 leukemia
KM12 colon = tested on: KM12 colon
LOX IMVI melanoma = tested on: LOX IMVI melanoma
M14 melanoma = tested on: M14 melanoma
MALME-3M melanoma = tested on: MALME-3M melanoma
MCF7 breast = tested on: MCF7 breast
MDA-MB-231 breast = tested on: MDA-MB-231 breast
MDA-MB-435 = tested on: MDA-MB-435
MOLT-4 leukemia = tested on: MOLT-4 leukemia
NCI-H226 lung = tested on: NCI-H226 lung
NCI-H23 lung = tested on: NCI-H23 lung
NCI-H460 lung = tested on: NCI-H460 lung
NCI/ADR-RES ovarian = tested on: NCI/ADR-RES ovarian
OVCAR-3 ovarian = tested on: OVCAR-3 ovarian
OVCAR-4 ovarian = tested on: OVCAR-4 ovarian
OVCAR-5 ovarian = tested on: OVCAR-5 ovarian
OVCAR-8 ovarian = tested on: OVCAR-8 ovarian
PC-3 prostate = tested on: PC-3 prostate
RPMI-8226 leukemia = tested on: RPMI-8226 leukemia
RXF 393 renal = tested on: RXF 393 renal
SF-268 CNS = tested on: SF-268 CNS
SF-295 CNS = tested on: SF-295 CNS
SF-539 CNS = tested on: SF-539 CNS
SK-MEL-2 melanoma = tested on: SK-MEL-2 melanoma
SK-MEL-28 melanoma = tested on: SK-MEL-28 melanoma
SK-MEL-5 melanoma = tested on: SK-MEL-5 melanoma
SK-OV-3 ovarian = tested on: SK-OV-3 ovarian
SN12C renal = tested on: SN12C renal
SNB-19 CNS = tested on: SNB-19 CNS
SNB-75 CNS = tested on: SNB-75 CNS
SW-620 colon = tested on: SW-620 colon
T-47D breast = tested on: T-47D breast
TK-10 renal = tested on: TK-10 renal
U251 CNS = tested on: U251 CNS
UACC-257 melanoma = tested on: UACC-257 melanoma
UACC-62 melanoma = tested on: UACC-62 melanoma
UO-31 renal = tested on: UO-31 renal

Cc1cccc(NC(=O)CCc2ccc(N3C(N)=NC(N)=NC3(C)C)cc2)c1
GI50 (786-0 renal): 18.9 µM
TGI (786-0 renal): > 100 µM
GI50 (A498 renal): > 65.6 µM
TGI (A498 renal): > 100 µM
GI50 (A549 NSCLC): 0.188 µM
TGI (A549 NSCLC): > 29 µM
GI50 (ACHN renal): > 100 µM
TGI (ACHN renal): > 100 µM
GI50 (BT-549 breast): 10.9 µM
TGI (BT-549 breast): > 100 µM
GI50 (CAKI-1 renal): 97.3 µM
TGI (CAKI-1 renal): > 100 µM
GI50 (CCRF-CEM leukemia): 1.07 µM
TGI (CCRF-CEM leukemia): > 100 µM
GI50 (COLO 205 colon): 7.8 µM
TGI (COLO 205 colon): > 100 µM
GI50 (DU-145 prostate): 0.941 µM
TGI (DU-145 prostate): > 100 µM
TGI (EKVX NSCLC): > 100 µM
GI50 (HCC-2998 colon): 3.34 µM
TGI (HCC-2998 colon): > 100 µM
GI50 (HCT-116 colon): 0.632 µM
TGI (HCT-116 colon): > 100 µM
GI50 (HCT-15 colon): > 100 µM
TGI (HCT-15 colon): > 100 µM
GI50 (HL-60(TB) leukemia): 0.641 µM
TGI (HL-60(TB) leukemia): > 100 µM
GI50 (HOP-62 NSCLC): 16.9 µM
TGI (HOP-62 NSCLC): > 100 µM
GI50 (HOP-92 NSCLC): 26 µM
TGI (HOP-92 NSCLC): > 100 µM
GI50 (HS 578T breast): > 52 µM
TGI (HS 578T breast): > 100 µM
GI50 (HT29 colon): 0.364 µM
TGI (HT29 colon): > 100 µM
GI50 (IGROV1 ovarian): 0.603 µM
TGI (IGROV1 ovarian): > 100 µM
GI50 (K-562 leukemia): 0.715 µM
TGI (K-562 leukemia): > 100 µM
GI50 (KM12 colon): 1.24 µM
TGI (KM12 colon): > 100 µM
GI50 (LOX IMVI melanoma): 0.654 µM
TGI (LOX IMVI melanoma): > 100 µM
GI50 (M14 melanoma): > 29.2 µM
TGI (M14 melanoma): > 100 µM
GI50 (MALME-3M melanoma): > 46.9 µM
TGI (MALME-3M melanoma): > 100 µM
GI50 (MCF7 breast): 1.24 µM
TGI (MCF7 breast): > 100 µM
GI50 (MDA-MB-231 breast): > 65.2 µM
TGI (MDA-MB-231 breast): > 100 µM
GI50 (MDA-MB-435): 0.56 µM
TGI (MDA-MB-435): > 100 µM
GI50 (MOLT-4 leukemia): 2.7 µM
TGI (MOLT-4 leukemia): > 100 µM
GI50 (NCI-H226 lung): > 64.7 µM
TGI (NCI-H226 lung): > 100 µM
GI50 (NCI-H23 lung): 6.32 µM
TGI (NCI-H23 lung): > 100 µM
GI50 (NCI-H460 lung): 0.454 µM
TGI (NCI-H460 lung): > 100 µM
GI50 (NCI/ADR-RES ovarian): > 100 µM
TGI (NCI/ADR-RES ovarian): > 100 µM
GI50 (OVCAR-3 ovarian): 6.76 µM
TGI (OVCAR-3 ovarian): > 100 µM
GI50 (OVCAR-4 ovarian): 18.4 µM
TGI (OVCAR-4 ovarian): > 100 µM
GI50 (OVCAR-5 ovarian): > 37.2 µM
TGI (OVCAR-5 ovarian): > 100 µM
GI50 (OVCAR-8 ovarian): 13.6 µM
TGI (OVCAR-8 ovarian): > 100 µM
GI50 (PC-3 prostate): 0.089 µM
TGI (PC-3 prostate): > 66.4 µM
GI50 (RPMI-8226 leukemia): 3.17 µM
TGI (RPMI-8226 leukemia): > 100 µM
GI50 (RXF 393 renal): > 42.1 µM
TGI (RXF 393 renal): > 100 µM
GI50 (SF-268 CNS): 0.547 µM
TGI (SF-268 CNS): > 100 µM
GI50 (SF-295 CNS): 2.56 µM
TGI (SF-295 CNS): > 76.3 µM
GI50 (SF-539 CNS): 1.93 µM
TGI (SF-539 CNS): > 100 µM
GI50 (SK-MEL-2 melanoma): > 33.6 µM
TGI (SK-MEL-2 melanoma): > 100 µM
GI50 (SK-MEL-28 melanoma): 11.8 µM
TGI (SK-MEL-28 melanoma): > 100 µM
GI50 (SK-MEL-5 melanoma): 2.48 µM
TGI (SK-MEL-5 melanoma): > 100 µM
GI50 (SK-OV-3 ovarian): > 62.9 µM
TGI (SK-OV-3 ovarian): > 100 µM
GI50 (SN12C renal): 0.575 µM
TGI (SN12C renal): > 100 µM
GI50 (SNB-19 CNS): 8.35 µM
TGI (SNB-19 CNS): > 100 µM
TGI (SNB-75 CNS): > 100 µM
GI50 (SW-620 colon): 1.13 µM
TGI (SW-620 colon): > 100 µM
GI50 (T-47D breast): 38.6 µM
TGI (T-47D breast): > 100 µM
GI50 (TK-10 renal): 18.2 µM
TGI (TK-10 renal): > 100 µM
GI50 (U251 CNS): 0.675 µM
TGI (U251 CNS): > 100 µM
GI50 (UACC-257 melanoma): 28.1 µM
TGI (UACC-257 melanoma): > 100 µM
GI50 (UACC-62 melanoma): 2.37 µM
TGI (UACC-62 melanoma): > 100 µM
GI50 (UO-31 renal): > 100 µM
TGI (UO-31 renal): > 100 µM
